According to ChEMBL document CHEMBL5055665, “Discovery of the Triazolo[1,5-a]Pyrimidine-Based Derivative WS-898 as a Highly Efficacious and Orally Bioavailable ABCB1 Inhibitor Capable of Overcoming Multidrug Resistance” (J Med Chem, 2021):
Activity calls are given as the source filed them. The calls are words filed in the database; no cut-off is given here.

Legend:
[1] = system: SW-620; experiment: Effect on ABCB1 expression in human SW-620/AD300 cells at 2 uM measured upto 96 hrs by Western blot analysis; format: functional, cell-based
[2] = system: SW-620; experiment: Reversal of resistance to paclitaxel-induced cytotoxicity in human SW-620 cells assessed as reduction in paclitaxel IC50 at 1 uM preincubated for 4 hrs followed by paclitaxel addition and measured after 72 hrs by MTT assay (reference value: 7.69 +/- 2.78 nM); format: functional, cell-based
[3] = system: KB 3-1; experiment: Reversal of resistance to paclitaxel-induced cytotoxicity in human KB 3-1 cells assessed as reversal fold at 1 uM preincubated for 4 hrs followed by paclitaxel addition and measured after 72 hrs by MTT assay relative to paclitaxel; format: functional; conditions: time 76 hrs
[4] = system: Mus musculus; experiment: Toxicity in BALB/c mouse xenografted with human SW-620/AD300 cells assessed as mortality at 30 mg/kg/day, ig administered 21 days; format: organism-based; conditions: in vivo, po, 504 h, time 21 day
[5] = system: KB-C2; experiment: Reversal of resistance to paclitaxel-induced cytotoxicity in human KB-C2 cells assessed as reversal fold at 1 uM preincubated for 4 hrs followed by paclitaxel addition and measured after 72 hrs by MTT assay relative to paclitaxel; format: functional; conditions: time 76 hrs
[6] = system: SW-620; experiment: Antitumor activity against human SW-620/AD300 cells xenografted in BALB/c nude mouse assessed as reduction in tumor weight at 30 mg/kg/day, ig administered for 21 days in presence of paclitaxel; format: functional, organism-based; conditions: time 21.0 day
[7] = system: HEK293; experiment: Reversal of resistance to paclitaxel-induced cytotoxicity in human HEK293/pcDNA3.1 cells assessed as reversal fold at 1 uM preincubated for 4 hrs followed by paclitaxel addition and measured after 72 hrs by MTT assay; format: functional; conditions: time 76 hrs
[8] = MRTlast in Sprague-Dawley rat at 10 mg/kg, iv measured up to 24 hrs by LC-MS/MS analysis; format: ADME, organism-based; conditions: in vivo
[9] = system: SW-620; experiment: Reversal of resistance to paclitaxel-induced cytotoxicity in human SW-620/AD300 cells assessed as reduction in paclitaxel IC50 at 2 uM preincubated for 4 hrs followed by paclitaxel addition and measured after 72 hrs by MTT assay (reference value: 4.23 +/- 0.50 uM); format: functional, cell-based
[10] = MRTinfinity in Sprague-Dawley rat at 10 mg/kg, iv measured up to 24 hrs by LC-MS/MS analysis; format: ADME, organism-based; conditions: in vivo
[11] = system: SW-620; experiment: Effect on subcellular localization of ABCB1 in human SW-620/AD300 cells at 2 uM measured after 72 hrs by Hoechst 33258 staining based immunofluorescence assay; format: functional, cell-based
[12] = system: KB-C2; experiment: Reversal of resistance to paclitaxel-induced cytotoxicity in human KB-C2 cells assessed as reduction in paclitaxel IC50 at 2 uM preincubated for 4 hrs followed by paclitaxel addition and measured after 72 hrs by MTT assay (reference value: 1886.37 +/- 243.05 nM); format: functional, cell-based
[13] = system: SW-620; experiment: Reversal of resistance to paclitaxel-induced cytotoxicity in human SW-620/AD300 cells assessed as reversal fold at 2 uM preincubated for 4 hrs followed by paclitaxel addition and measured after 72 hrs by MTT assay relative to paclitaxel; format: functional; conditions: time 76 hrs
[14] = system: HEK293; experiment: Reversal of resistance to paclitaxel-induced cytotoxicity in human HEK293/pcDNA3.1 cells assessed as reduction in paclitaxel IC50 at 1 uM preincubated for 4 hrs followed by paclitaxel addition and measured after 72 hrs by MTT assay (reference value: 1.93 +/- 0.06 nM); format: functional, cell-based
[15] = system: HEK293; experiment: Reversal of resistance to paclitaxel-induced cytotoxicity in human HEK293/ABCB1 cells assessed as reversal fold at 1 uM preincubated for 4 hrs followed by paclitaxel addition and measured after 72 hrs by MTT assay relative to paclitaxel; format: functional; conditions: time 76 hrs
[16] = system: KB-C2; experiment: Reversal of resistance to paclitaxel-induced cytotoxicity in human KB-C2 cells assessed as reversal fold at 2 uM preincubated for 4 hrs followed by paclitaxel addition and measured after 72 hrs by MTT assay relative to paclitaxel; format: functional; conditions: time 76 hrs
[17] = system: Mus musculus; experiment: Toxicity in BALB/c mouse xenografted with human SW-620/AD300 cells assessed as change in body weight at 30 mg/kg/day, ig administered 21 days; format: organism-based; conditions: in vivo, po, 504 h, time 21 day
[18] = system: KB 3-1; experiment: Reversal of resistance to paclitaxel-induced cytotoxicity in human KB 3-1 cells assessed as reduction in paclitaxel IC50 at 1 uM preincubated for 4 hrs followed by paclitaxel addition and measured after 72 hrs by MTT assay (reference value: 4.54 +/- 1.59 nM); format: functional, cell-based
[19] = system: SW-620; experiment: Antitumor activity against human SW-620/AD300 cells xenografted in BALB/c nude mouse assessed as increase in tumor cell apoptosis at 30 mg/kg/day, ig administered for 21 days in presence of paclitaxel by TUNEL staining based fluorescence microscopy; format: functional, organism-based; conditions: time 21.0 day
[20] = system: SW-620; experiment: Antitumor activity against human SW-620/AD300 cells xenografted in BALB/c nude mouse assessed as tumor growth inhibition at 30 mg/kg/day, ig administered for 21 days; format: functional; parameters: scale not given: the % may be the effect or the level left; conditions: time 21 day
[21] = system: SW-620; experiment: Reversal of resistance to paclitaxel-induced cytotoxicity in human SW-620/AD300 cells assessed as reversal fold at 1 uM preincubated for 4 hrs followed by paclitaxel addition and measured after 72 hrs by MTT assay relative to paclitaxel; format: functional; conditions: time 76 hrs
[22] = system: KB-C2; experiment: Reversal of resistance to paclitaxel-induced cytotoxicity in human KB-C2 cells assessed as reduction in paclitaxel IC50 at 1 uM preincubated for 4 hrs followed by paclitaxel addition and measured after 72 hrs by MTT assay (reference value: 1886.37 +/- 243.05 nM); format: functional, cell-based
[23] = system: KB 3-1; experiment: Reversal of resistance to paclitaxel-induced cytotoxicity in human KB 3-1 cells assessed as reversal fold at 2 uM preincubated for 4 hrs followed by paclitaxel addition and measured after 72 hrs by MTT assay relative to paclitaxel; format: functional; conditions: time 76 hrs
[24] = system: Mus musculus; experiment: Hepatotoxicity in BALB/c mouse xenografted with human SW-620/AD300 cells at 30 mg/kg/day, ig administered for 21 days in presence of paclitaxel; format: toxicity, organism-based; conditions: in vivo, po, 504 h, time 21 day
[25] = system: HEK293; experiment: Reversal of resistance to paclitaxel-induced cytotoxicity in human HEK293/pcDNA3.1 cells assessed as reversal fold at 2 uM preincubated for 4 hrs followed by paclitaxel addition and measured after 72 hrs by MTT assay; format: functional; conditions: time 76 hrs
[26] = molecular target: ATP-dependent translocase ABCB1 (Homo sapiens, UniProt P08183); experiment: Activation of ABCB1 ATPase activity (unknown origin) assessed as fold stimulation of ATP hydrolysis at 0 to 20 uM using Mg-ATP as substrate incubated for 20 mins by spectrophotometric method; conditions: dose 0-20 µM
Chain of ATP-dependent translocase ABCB1 (P08183 whole entry): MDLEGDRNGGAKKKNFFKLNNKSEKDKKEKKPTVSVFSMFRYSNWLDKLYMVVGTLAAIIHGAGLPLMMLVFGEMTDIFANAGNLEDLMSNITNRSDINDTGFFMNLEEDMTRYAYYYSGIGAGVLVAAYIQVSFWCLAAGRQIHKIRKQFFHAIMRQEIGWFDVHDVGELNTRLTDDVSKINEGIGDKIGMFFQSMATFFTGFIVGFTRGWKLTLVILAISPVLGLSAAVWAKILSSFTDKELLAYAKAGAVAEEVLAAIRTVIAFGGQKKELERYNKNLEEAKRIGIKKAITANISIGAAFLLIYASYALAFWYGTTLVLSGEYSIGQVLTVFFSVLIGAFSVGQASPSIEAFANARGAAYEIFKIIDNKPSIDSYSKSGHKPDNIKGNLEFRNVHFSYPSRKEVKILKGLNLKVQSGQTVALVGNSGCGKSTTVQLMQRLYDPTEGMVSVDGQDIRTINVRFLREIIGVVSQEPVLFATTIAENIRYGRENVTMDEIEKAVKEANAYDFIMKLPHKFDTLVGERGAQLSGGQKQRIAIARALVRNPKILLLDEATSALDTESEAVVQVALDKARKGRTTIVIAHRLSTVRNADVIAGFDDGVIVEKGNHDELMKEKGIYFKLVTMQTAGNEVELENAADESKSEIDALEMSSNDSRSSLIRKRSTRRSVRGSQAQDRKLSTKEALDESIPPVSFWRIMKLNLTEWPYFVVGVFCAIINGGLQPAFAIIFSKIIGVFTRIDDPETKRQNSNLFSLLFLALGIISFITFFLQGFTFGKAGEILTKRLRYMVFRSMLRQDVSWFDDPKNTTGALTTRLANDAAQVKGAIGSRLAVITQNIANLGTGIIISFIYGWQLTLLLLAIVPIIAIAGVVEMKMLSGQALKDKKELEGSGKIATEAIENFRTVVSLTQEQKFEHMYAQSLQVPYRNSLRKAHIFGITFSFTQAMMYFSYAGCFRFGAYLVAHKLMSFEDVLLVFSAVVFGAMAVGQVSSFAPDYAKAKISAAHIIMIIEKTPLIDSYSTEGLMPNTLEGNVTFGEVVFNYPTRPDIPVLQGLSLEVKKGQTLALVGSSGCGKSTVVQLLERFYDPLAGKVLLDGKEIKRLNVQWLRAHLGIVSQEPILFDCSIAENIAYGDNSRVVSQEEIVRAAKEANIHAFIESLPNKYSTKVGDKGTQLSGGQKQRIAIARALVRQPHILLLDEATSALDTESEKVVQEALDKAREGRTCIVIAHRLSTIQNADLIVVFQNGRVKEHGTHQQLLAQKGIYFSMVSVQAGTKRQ

[27] = Half life in Sprague-Dawley rat at 10 mg/kg, iv measured up to 24 hrs by LC-MS/MS analysis; format: ADME, organism-based; conditions: in vivo
[28] = AUCinfinity in Sprague-Dawley rat at 10 mg/kg, iv measured up to 24 hrs by LC-MS/MS analysis; format: ADME, organism-based; parameters: dose 10 mg/kg, time < 24 hrs, route iv; conditions: in vivo
[29] = system: Mus musculus; experiment: Toxicity in BALB/c mouse xenografted with human SW-620/AD300 cells assessed as change in body weight at 30 mg/kg/day, ig administered 21 days in presence of paclitaxel; format: organism-based; conditions: in vivo, po, 504 h, time 21 day
[30] = system: SW-620; experiment: Reversal of resistance to paclitaxel-induced cytotoxicity in human SW-620 cells assessed as reversal fold at 1 uM preincubated for 4 hrs followed by paclitaxel addition and measured after 72 hrs by MTT assay relative to paclitaxel; format: functional; conditions: time 76 hrs

Cc1cc(Nc2ccc(C(=O)/C=C/c3ccc4ccccc4c3)cc2)n2nc(SCc3nc4ccccc4[nH]3)nc2n1
Activity [1]: inactive
IC50 [2]: 7.19 nM
fold change (FC) [3]: 1.11
Activity [4]: Non-Toxic
fold change (FC) [5]: 118.34
Activity [6]: Active
fold change (FC) [7]: 1.14
MRT last at 24 h [8]: 5.76 min
IC50 [9]: 5 nM
MRT inf [10]: 6.42 min
Activity [11]: Active
IC50 [12]: 3.67 nM
fold change (FC) [13]: 846
IC50 [14]: 1.69 nM
fold change (FC) [15]: 9.92
fold change (FC) [16]: 513.99
Activity [17]: Non-Toxic
IC50 [18]: 4.09 nM
Activity [19]: Active
Activity [20]: 30%
fold change (FC) [21]: 150.38
IC50 [22]: 15.9 nM
fold change (FC) [23]: 1.29
Activity [24]: Non-Toxic
fold change (FC) [25]: 1.47
fold change (FC) [26]: 4.68
half-life [27]: 85.8 min
AUC(0-inf) [28]: 9450 ng·h/mL
Activity [29]: Non-Toxic
fold change (FC) [30]: 1.06
